In patent US20090029995A1, “HETERO BIARYL DERIVATIVES AS MATRIX METALLOPROTEINASE INHIBITORS” (WARNER-LAMBERT COMPANY, priority 2002, published 2009):

Tests used:
[1] = target: T1, MMP-13 catalytic domain (Homo sapiens, UniProt P45452); experiment: MMP-13 catalytic domain inhibition (thiopeptolide substrate hydrolysis); format: biochemical; details: read-out: MMP-13CD IC50
T1 construct: use the catalytic domain of the MMP-13 enzyme, namely matrix metalloproteinase-13 catalytic domain (“MMP-13CD”)
Source text: The assays measure the amount by which a test compound reduces the hydrolysis of a thiopeptolide substrate catalyzed by a matrix metalloproteinase enzyme. […] One such assay is described below in Biological Method 1.
Some of the particular methods described below use the catalytic domain of the MMP-13 enzyme, namely matrix metalloproteinase-13 catalytic domain (“MMP-13CD”), rather than the corresponding full-length enzyme, MMP-13.
Thiopeptolide substrates show virtually no decomposition or hydrolysis at or below neutral pH in the absence of a matrix metalloproteinase enzyme. A typical thiopeptolide substrate commonly utilized for assays is Ac-Pro-Leu-Gly-thioester-Leu-Leu-Gly-OEt. […] Assays are carried out with and without matrix metalloproteinase inhibitor compounds, and the amount of hydrolysis is compared for a determination of inhibitory activity of the test compounds.

Compound	IC50 [1]	melting point
CC(C#Cc1cccc(-c2nnn(Cc3ccc(C(=O)O)cc3)n2)c1)c1ccccc1 (centres unmarked) [Example G8, 4-{5-[3-(3-Phenyl-but-1-ynyl)-phenyl]-tetrazol-2-ylmethyl}-benzoic acid]	1800 nM	
NCc1ccc(Cn2nnc(-c3cccc(C#CCc4ccccc4)c3)n2)cc1 [Example D6, 4-{5-[3-(3-Phenyl-prop-1-ynyl)-phenyl]-tetrazol-2-ylmethyl}-benzylamine]	2800 nM	
O=C(O)c1ccc(Cn2nnc(-c3cccc(C#CCn4ccnc4)c3)n2)cc1 [Example G5, 4-{5-[3-(3-Imidazol-1-yl-prop-1-ynyl)-phenyl]-tetrazol-2-ylmethyl}-benzoic acid]	6.8 nM	
CCCC(=O)NCc1ccc(Cn2nnc(-c3cccc(C#CCc4ccccc4)c3)n2)cc1 [Example D7, N-(4-{5-[3-(3-Phenyl-prop-1-ynyl)-phenyl]-tetrazol-2-ylmethyl}-benzyl)-butyramide]	1300 nM	
CC(=O)NCc1ccc(Cn2nnc(-c3cccc(C#CCc4ccccc4)c3)n2)cc1 [Example D8, N-(4-{5-[3-(3-Phenyl-prop-1-ynyl)-phenyl]-tetrazol-2-ylmethyl}-benzyl)-acetamide]	330 nM	
COc1ccc(Cn2nnc(-c3cccc(C(=O)NCc4ccccc4)c3)n2)cc1 [Example 17, N-Benzyl-3-[2-(4-methoxy-benzyl)-2H-tetrazol-5-yl]-benzamide]		169 to 170 °C
O=C(O)c1ccc(Cn2nnc(-c3cccc(-c4nnc(Cc5ccccc5)o4)c3)n2)cc1 [Example A1, 4-{5-[3-(5-Benzyl-[1,3,4]oxadiazol-2-yl)-phenyl]-tetrazol-2-ylmethyl}-benzoic acid]	440 nM	
O=C(O)c1ccc(Cn2nnc(-c3cccc(C(=O)NCc4cccnc4)c3)n2)cc1 [Example F2, 4-(5-{3-[(Pyridin-3-ylmethyl)-carbamoyl]-phenyl}-tetrazol-2-ylmethyl)-benzoic acid; compound with trifluoro-acetic acid]	280 nM	
COc1ccc(Cn2nnc(-c3cccc(C(=O)NCc4cccc(C(F)(F)F)c4)c3)n2)cc1 [Example 14, 3-[2-(4-Methoxy-benzyl)-2H-tetrazol-5-yl]-N-(3-trifluoromethyl-benzyl)-benzamide]		162 to 163 °C
O=C(O)c1ccc(-c2nnc(-c3cccc(C#CCc4ccccc4)c3)o2)cc1 [Example C1, 4-{5-[3-(3-Phenyl-prop-1-ynyl)-phenyl]-[1,3,4]oxadiazol-2-yl}-benzoic acid]	3400 nM	
COc1ccc(Cn2nnc(-c3cccc(C(=O)NCc4nccs4)c3)n2)cc1 [Example 11, 3-[2-(4-Methoxy-benzyl)-2H-tetrazol-5-yl]-N-thiazol-2-ylmethyl-benzamide]		143 to 145 °C
CC(C)(C)OC(=O)c1ccc(Cn2nnc(-c3cccc(-c4ncc(-c5ccccc5)o4)c3)n2)cc1 [Example A3, 4-{5-[3-(5-Phenyl-oxazol-2-yl)-phenyl]-tetrazol-2-ylmethyl}-benzoic acid tertiary butyl ester]	1400 nM	
O=C(O)c1ccc(Cn2nnc(-c3cccc(-c4nnc(-c5ccccc5)o4)c3)n2)cc1 [Example A2, 4-{5-[3-(5-Phenyl-[1,3,4]oxadiazol-2-yl)-phenyl]-tetrazol-2-ylmethyl}-benzoic acid]	> 3000 nM	
COc1ccc(-c2cnc(-c3cccc(-c4nnn(Cc5ccc(C(=O)OC(C)(C)C)cc5)n4)c3)o2)cc1 [Example A6, 4-(5-{3-[5-(4-Methoxy-phenyl)-oxazol-2-yl]-phenyl}-tetrazol-2-ylmethyl)-benzoic acid tertiary butyl ester]	1000 nM	
COc1ccc(-c2cnc(-c3cccc(-c4nnc(Cc5ccc(C(=O)O)cc5)s4)c3)o2)cc1 [Example B3, 4-(5-{3-[5-(4-Methoxy-phenyl)-oxazol-2-yl]-phenyl}-[1,3,4]thiadiazol-2-ylmethyl)-benzoic acid]	14 nM	
O=C(O)c1ccc(Cn2nnc(-c3cccc(C#CCn4ccc(=O)cc4)c3)n2)cc1 [Example G6, 4-(5-{3-[3-(4-Oxo-4H-pyridin-1-yl)-prop-1-ynyl]-phenyl}-tetrazol-2-ylmethyl)-benzoic acid]	6.4 nM	
COc1ccc(-c2cnc(-c3cccc(-c4nnc(-c5ccc(C(=O)O)cc5)o4)c3)o2)cc1 [Example B1, 4-(5-{3-[5-(4-Methoxy-phenyl)-oxazol-2-yl]-phenyl}-[1,3,4]oxadiazol-2-yl)-benzoic acid]	49000 nM	
O=C(O)c1ccc(Cn2nnc(-c3cccc(C(=O)NCc4ccncc4)c3)n2)cc1 [Example F1, 4-(5-{3-[(Pyridin-4-ylmethyl)-carbamoyl]-phenyl}-tetrazol-2-ylmethyl)-benzoic acid; compound with trifluoro-acetic acid]	99 nM	
O=C(O)c1ccc(Cn2nnc(-c3cccc(C#CCOc4ccc(F)cc4)c3)n2)cc1 [Example G4, 4-(5-{3-[3-(4-Fluoro-phenoxy)-prop-1-ynyl]-phenyl}-tetrazol-2-ylmethyl)-benzoic acid]	86 nM	
Fc1ccc(Cn2nnc(-c3cccc(-c4ncc(-c5ccccc5)o4)c3)n2)cc1F [Example A5, 2-(3,4-Difluoro-benzyl)-5-[3-(5-phenyl-oxazol-2-yl)-phenyl]-2H-tetrazole]	1800 nM	
COc1ccc(-c2cnc(-c3cccc(-c4nnc(Cc5ccc(C(=O)O)cc5)o4)c3)o2)cc1 [Example B2, 4-(5-{3-[5-(4-Methoxy-phenyl)-oxazol-2-yl]-phenyl}-[1,3,4]oxadiazol-2-ylmethyl)-benzoic acid]	200 nM	
O=C(O)c1ccc(Cn2nnc(-c3cncc(C#CCc4ccc(F)cc4)c3)n2)cc1 [Example H2, 4-(5-{5-[3-(4-Fluoro-phenyl)-prop-1-ynyl]-pyridin-3-yl}-tetrazol-2-ylmethyl)-benzoic acid]	8.3 nM	
O=C(O)c1ccc(Cn2nnc(-c3cncc(C#CCn4ccnc4)c3)n2)cc1 [Example H3, 4-{5-[5-(3-Imidazol-1-yl-prop-1-ynyl)-pyridin-3-yl]-tetrazol-2-ylmethyl}-benzoic acid]	160 nM	
[4-(5-{3-[3-(4-Fluoro-phenyl)-prop-1-ynyl]-phenyl}-tetrazol-2-ylmethyl)-phenyl]-phosphonic acid [Example D2]	13 nM	
COc1ccc(-c2cnc(-c3cccc(-c4nnn(Cc5ccc(C(=O)O)cc5)n4)c3)s2)cc1 [Example A9, 4-(5-{3-[5-(4-Methoxy-phenyl)-thiazol-2-yl]-phenyl}-tetrazol-2-ylmethyl)-benzoic acid]	3.6 nM	
COc1ccc(-c2cnc(-c3cccc(-c4nnn(Cc5ccc(C(=O)O)cc5)n4)c3)o2)cc1 [Example A7, 4-(5-{3-[5-(4-Methoxy-phenyl)-oxazol-2-yl]-phenyl}-tetrazol-2-ylmethyl)-benzoic acid]	18 nM	
O=C(O)c1ccc(Cn2nnc(-c3cccc(C#CCn4cnc(-c5ccccc5)c4)c3)n2)cc1 [Example G7, 4-(5-{3-[3-(4-Phenyl-imidazol-1-yl)-prop-1-ynyl]-phenyl}-tetrazol-2-ylmethyl)-benzoic acid]	29 nM	
O=C(O)c1ccc(Cn2nnc(-c3cccc(-c4ncc(-c5ccccc5)o4)c3)n2)cc1 [Example A4, 4-{5-[3-(5-Phenyl-oxazol-2-yl)-phenyl]-tetrazol-2-ylmethyl}-benzoic acid]	400 nM	
COc1ccc(-c2cnc(-c3cccc(-c4nnn(Cc5ccc(F)c(F)c5)n4)c3)o2)cc1 [Example A8, 2-(3,4-Difluoro-benzyl)-5-{3-[5-(4-methoxy-phenyl)-oxazol-2-yl]-phenyl}-2H-tetrazole]	1300 nM	
